Test results from patent publication US10202361B2, “Pyridazinones as herbicides” (E I DU PONT DE NEMOURS AND COMPANY, priority 2014, dated 2019).

Experiments:
Assay type in all cases: in vivo
[1] = test system: ducksalad (Heteranthera limosa); assay: Test B flooded paddy test; details: Flood, scale of 0 to 100, 0 is no effect, 100 is complete control, 13 to 15 d
Description: (§1) Plant species in the flooded paddy test selected from rice (Oryza sativa), small-flower sedge, umbrella (small-flower umbrella sedge, Cyperus difformis), ducksalad (Heteranthera limosa), and barnyardgrass (Echinochloa crus-galli) were grown to the 2-leaf stage for testing. At time of treatment, test pots were flooded to 3 cm above the soil surface, treated by application of test compounds directly to the paddy water, and then maintained at that water depth for the duration of the test. Treated plants and controls were maintained in a greenhouse for 13 to 15 d, after which time all species were compared to controls and visually evaluated. Plant response ratings, summarized in Table B, are based on a scale of 0 to 100 where 0 is no effect and 100 is complete control. A dash (-) response means no test result.

[2] = test system: sedge, umbrella (small-flower umbrella sedge, Cyperus difformis); assay: Test B flooded paddy test; details: Flood, scale of 0 to 100, 0 is no effect, 100 is complete control, 13 to 15 d
Description: as §1

rice (Oryza sativa) = assay: Test B flooded paddy test; details: Flood, scale of 0 to 100, 0 is no effect, 100 is complete control, 13 to 15 d
Description: as §1

[3] = test system: barnyardgrass (Echinochloa crus-galli); assay: Test B flooded paddy test; details: Flood, scale of 0 to 100, 0 is no effect, 100 is complete control, 13 to 15 d
Description: as §1

[4] = test system: crabgrass, Large (large crabgrass, Digitaria sanguinalis); assay: Test A pre-/postemergence greenhouse herbicide test; details: 0 to 100 scale (0 no effect, 100 complete control), approx. 10 d
Excerpt: (§2) Seeds of plant species selected from barnyardgrass (Echinochloa crus-galli), crabgrass, Large (large crabgrass, Digitaria sanguinalis), foxtail, giant (giant foxtail, Setaria faberii), morningglory (Ipomoea spp.), pigweed (Amaranthus retroflexus), velvetleaf (Abutilon theophrasti), wheat (Triticum aestivum), and corn (Zea mays) were planted into a blend of loam soil and sand and treated preemergence with a directed soil spray using test chemicals formulated in a non-phytotoxic solvent mixture which included a surfactant. At the same time these species were also treated with postemergence applications of test chemicals formulated in the same manner.
(§3) Plants ranged in height from 2 to 10 cm and were in the one- to two-leaf stage for the postemergence treatment. Treated plants and untreated controls were maintained in a greenhouse for approximately 10 d, after which time all treated plants were compared to untreated controls and visually evaluated for injury. Plant response ratings, summarized in Table A, are based on a 0 to 100 scale where 0 is no effect and 100 is complete control. A dash (-) response means no test result.

[5] = test system: pigweed (Amaranthus retroflexus); assay: as above; details: 0 to 100 scale (0 no effect, 100 complete control), approx. 10 d
Excerpt: as §2, §3

[6] = test system: morningglory (Ipomoea spp.); assay: as above; details: 0 to 100 scale (0 no effect, 100 complete control), approx. 10 d
Excerpt: as §2, §3

[7] = test system: velvetleaf (Abutilon theophrasti); assay: as above; details: 0 to 100 scale (0 no effect, 100 complete control), approx. 10 d
Excerpt: as §2, §3

corn (Zea mays) = assay: as above; details: 0 to 100 scale (0 no effect, 100 complete control), approx. 10 d
Excerpt: as §2, §3

[8] = test system: barnyardgrass (Echinochloa crus-galli); assay: as above; details: 0 to 100 scale (0 no effect, 100 complete control), approx. 10 d
Excerpt: as §2, §3

[9] = test system: foxtail, giant (giant foxtail, Setaria faberii); assay: as above; details: 0 to 100 scale (0 no effect, 100 complete control), approx. 10 d
Excerpt: as §2, §3

[10] = test system: wheat (Triticum aestivum); assay: as above; details: 0 to 100 scale (0 no effect, 100 complete control), approx. 10 d
Excerpt: as §2, §3

SMILES	Plant response rating, Crabgrass, Large ([4]; Postemergence, 125 g ai/ha)	Plant response rating, Crabgrass, Large ([4]; Postemergence, 500 g ai/ha)	Plant response rating, Crabgrass, Large ([4]; Preemergence, 125 g ai/ha)	Plant response rating, Crabgrass, Large ([4]; Preemergence, 500 g ai/ha)	Plant response rating, Pigweed ([5]; Postemergence, 125 g ai/ha)	Plant response rating, Pigweed ([5]; Postemergence, 500 g ai/ha)	Plant response rating, Pigweed ([5]; Preemergence, 125 g ai/ha)	Plant response rating, Pigweed ([5]; Preemergence, 500 g ai/ha)	Plant response rating, Morningglory ([6]; Postemergence, 125 g ai/ha)	Plant response rating, Morningglory ([6]; Postemergence, 500 g ai/ha)	Plant response rating, Morningglory ([6]; Preemergence, 125 g ai/ha)	Plant response rating, Morningglory ([6]; Preemergence, 500 g ai/ha)	Plant response rating, Velvetleaf ([7]; Postemergence, 125 g ai/ha)	Plant response rating, Velvetleaf ([7]; Postemergence, 500 g ai/ha)	Plant response rating, Velvetleaf ([7]; Preemergence, 125 g ai/ha)	Plant response rating, Velvetleaf ([7]; Preemergence, 500 g ai/ha)	Plant response rating, Corn (corn (Zea mays); Postemergence, 125 g ai/ha)	Plant response rating, Corn (corn (Zea mays); Postemergence, 500 g ai/ha)	Plant response rating, Corn (corn (Zea mays); Preemergence, 125 g ai/ha)	Plant response rating, Corn (corn (Zea mays); Preemergence, 500 g ai/ha)	further results
Cc1cc(=O)n(-c2cccc(C(F)(F)F)c2)nc1Oc1ccnc(C(F)(F)F)c1 [Compound 4]	30	60	90	100	100	100	100	100	40	70	20	40	90	100	10	20	10	30	0	10	Plant response rating, Ducksalad ([1]; 125 g ai/ha): 65; Plant response rating, Sedge, Umbrella ([2]; 125 g ai/ha): 70; Plant response rating, Rice (rice (Oryza sativa); 125 g ai/ha): 40; Plant response rating, Barnyardgrass ([3]; 125 g ai/ha): 20; Plant response rating, Barnyardgrass ([8]; Postemergence, 125 g ai/ha): 10; Plant response rating, Barnyardgrass ([8]; Postemergence, 500 g ai/ha): 20; Plant response rating, Barnyardgrass ([8]; Preemergence, 125 g ai/ha): 10; Plant response rating, Barnyardgrass ([8]; Preemergence, 500 g ai/ha): 40; Plant response rating, Foxtail, Giant ([9]; Postemergence, 125 g ai/ha): 30; Plant response rating, Foxtail, Giant ([9]; Postemergence, 500 g ai/ha): 70; Plant response rating, Foxtail, Giant ([9]; Preemergence, 125 g ai/ha): 70; Plant response rating, Foxtail, Giant ([9]; Preemergence, 500 g ai/ha): 100; Plant response rating, Wheat ([10]; Postemergence, 125 g ai/ha): 10; Plant response rating, Wheat ([10]; Postemergence, 500 g ai/ha): 20; Plant response rating, Wheat ([10]; Preemergence, 125 g ai/ha): 0; Plant response rating, Wheat ([10]; Preemergence, 500 g ai/ha): 10
O=c1c2c(c(Oc3ccnc(C(F)(F)F)c3)nn1-c1ccc(Cl)cc1)CCCC2 [Compound 7]	10	10	0	40	90	100	20	50	10	20	0	0	20	40	0	0	10	10	0	0	Plant response rating, Ducksalad ([1]; 125 g ai/ha): 0; Plant response rating, Sedge, Umbrella ([2]; 125 g ai/ha): 0; Plant response rating, Rice (rice (Oryza sativa); 125 g ai/ha): 0; Plant response rating, Barnyardgrass ([3]; 125 g ai/ha): 0; Plant response rating, Barnyardgrass ([8]; Postemergence, 125 g ai/ha): 0; Plant response rating, Barnyardgrass ([8]; Postemergence, 500 g ai/ha): 10; Plant response rating, Barnyardgrass ([8]; Preemergence, 125 g ai/ha): 0; Plant response rating, Barnyardgrass ([8]; Preemergence, 500 g ai/ha): 40; Plant response rating, Foxtail, Giant ([9]; Postemergence, 125 g ai/ha): 10; Plant response rating, Foxtail, Giant ([9]; Postemergence, 500 g ai/ha): 10; Plant response rating, Foxtail, Giant ([9]; Preemergence, 125 g ai/ha): 0; Plant response rating, Foxtail, Giant ([9]; Preemergence, 500 g ai/ha): 30; Plant response rating, Wheat ([10]; Postemergence, 125 g ai/ha): 0; Plant response rating, Wheat ([10]; Postemergence, 500 g ai/ha): 10; Plant response rating, Wheat ([10]; Preemergence, 125 g ai/ha): 0; Plant response rating, Wheat ([10]; Preemergence, 500 g ai/ha): 0
Cc1cc(=O)n(-c2ccc(F)cc2)nc1Cc1cccc(C(F)(F)F)c1 [Compound 8]	40	90	90	100	90	100	90	100	80	80	0	0	20	80	0	0	20	40	0	0	Plant response rating, Ducksalad ([1]; 250 g ai/ha): 0; Plant response rating, Sedge, Umbrella ([2]; 250 g ai/ha): 75; Plant response rating, Rice (rice (Oryza sativa); 250 g ai/ha): 25; Plant response rating, Barnyardgrass ([3]; 250 g ai/ha): 20; Plant response rating, Barnyardgrass ([8]; Postemergence, 125 g ai/ha): 20; Plant response rating, Barnyardgrass ([8]; Postemergence, 500 g ai/ha): 50; Plant response rating, Barnyardgrass ([8]; Preemergence, 125 g ai/ha): 20; Plant response rating, Barnyardgrass ([8]; Preemergence, 500 g ai/ha): 80; Plant response rating, Foxtail, Giant ([9]; Postemergence, 125 g ai/ha): 50; Plant response rating, Foxtail, Giant ([9]; Postemergence, 500 g ai/ha): 90; Plant response rating, Foxtail, Giant ([9]; Preemergence, 125 g ai/ha): 80; Plant response rating, Foxtail, Giant ([9]; Preemergence, 500 g ai/ha): 90; Plant response rating, Wheat ([10]; Postemergence, 125 g ai/ha): 10; Plant response rating, Wheat ([10]; Postemergence, 500 g ai/ha): 20; Plant response rating, Wheat ([10]; Preemergence, 125 g ai/ha): 0; Plant response rating, Wheat ([10]; Preemergence, 500 g ai/ha): 0
Cc1cc(Oc2cc(C(F)(F)F)ccn2)nn(-c2ccc(F)cc2)c1=O [Compound 9]	0	0	0	0	0	0	0	0	0	0	0	0	0	0	0	0	0	0	0	0	Plant response rating, Ducksalad ([1]; 250 g ai/ha): 0; Plant response rating, Sedge, Umbrella ([2]; 250 g ai/ha): 0; Plant response rating, Rice (rice (Oryza sativa); 250 g ai/ha): 0; Plant response rating, Barnyardgrass ([3]; 250 g ai/ha): 0; Plant response rating, Barnyardgrass ([8]; Postemergence, 125 g ai/ha): 0; Plant response rating, Barnyardgrass ([8]; Postemergence, 500 g ai/ha): 0; Plant response rating, Foxtail, Giant ([9]; Postemergence, 125 g ai/ha): 0; Plant response rating, Foxtail, Giant ([9]; Postemergence, 500 g ai/ha): 0; Plant response rating, Foxtail, Giant ([9]; Preemergence, 125 g ai/ha): 0; Plant response rating, Foxtail, Giant ([9]; Preemergence, 500 g ai/ha): 0; Plant response rating, Wheat ([10]; Postemergence, 125 g ai/ha): 0; Plant response rating, Wheat ([10]; Postemergence, 500 g ai/ha): 0; Plant response rating, Wheat ([10]; Preemergence, 125 g ai/ha): 0; Plant response rating, Wheat ([10]; Preemergence, 500 g ai/ha): 0
Cc1cc(=O)n(-c2ccc(F)cc2)nc1Oc1cc(C(F)(F)F)ccn1 [Compound 10]	10	20	0	10	30	60	0	30	30	30	0	0	0	10	0	0	0	10	0	0	Plant response rating, Ducksalad ([1]; 250 g ai/ha): 0; Plant response rating, Sedge, Umbrella ([2]; 250 g ai/ha): 0; Plant response rating, Rice (rice (Oryza sativa); 250 g ai/ha): 0; Plant response rating, Barnyardgrass ([3]; 250 g ai/ha): 0; Plant response rating, Barnyardgrass ([8]; Postemergence, 125 g ai/ha): 0; Plant response rating, Barnyardgrass ([8]; Postemergence, 500 g ai/ha): 0; Plant response rating, Foxtail, Giant ([9]; Postemergence, 125 g ai/ha): 0; Plant response rating, Foxtail, Giant ([9]; Postemergence, 500 g ai/ha): 10; Plant response rating, Foxtail, Giant ([9]; Preemergence, 125 g ai/ha): 0; Plant response rating, Foxtail, Giant ([9]; Preemergence, 500 g ai/ha): 20; Plant response rating, Wheat ([10]; Postemergence, 125 g ai/ha): 0; Plant response rating, Wheat ([10]; Postemergence, 500 g ai/ha): 0; Plant response rating, Wheat ([10]; Preemergence, 125 g ai/ha): 0; Plant response rating, Wheat ([10]; Preemergence, 500 g ai/ha): 0
